The numbers were not newly measured in patent publication US5279834A, “Pharmaceutical or cosmetic composition containing hydroquinone and kojic acid” (priority 1987, dated 1994), which cites them from elsewhere.

The conditions of the data set: background statement; The Journal of Investigative Dermatology 73, 354-358 (1979).

Turning to `CC1=C(/C=C/C(C)=C/C=C/C(C)=C/C(=O)O)C(C)(C)CCC1` [vitamin A acid], the irritant character entry is listed as “well known for its irritant character”.
